Experimental data reported in US9248150B2 (priority 2009, dated 2016).
“And” between values parts separate entries of the source, which are not always exact repeats. Equal entries are not always repeated. “Also recorded” adds a separate entry of the source.

Experiments:
UB/OC-1 hair cells = assay: Cell viability by trypan blue staining; assay type: cell-based
Protocol: Cells were then treated with trypan blue and the number of viable cells per high power field determined and expressed as a percent of total cell per field. […] Data are present as the mean±standard error from four independent coverslips.

TRPV1 mRNA [1] = assay: Kidney TRPV1 mRNA by real time RT-PCR; assay type: in vivo, male Wistar rats; details: 72 h
Source text: (§1) Kidneys were harvested, total RNA was isolated, reverse transcribed and real time RT-PCR performed substantially as described herein above. FIG. 8A is a bar graph of the increase in mRNA expression for each of KIM-1 (green), NOX3 (blue) and TRPV1 (red) observed. […] Attenuation of these markers by transplatin is indicative of its nephroprotective role.

[2] = tested on: outer hair cells of the organ of Corti; assay: Outer hair cell damage/loss by SEM, trans-tympanic transplatin; assay type: in vivo, Wistar rats
Protocol: Post-treatment ABRs were conducted 72 h later. […] This was abrogated by pretreatment with trans-tympanic transplatin. […] Arrows indicate areas of damage to outer hair cells.

KIM-1 = KIM-1 immunoreactivity in cochlea sections; assay type: in vivo, male Wistar rats; details: 72 h
Protocol: Cochleas were harvested 72 h later, fixed in 4% paraformaldehyde, decalcified, sectioned and stained for KIM1 immunoreactivity. FIG. 3C is a panel of photomicrographs of the cochlea sections from following the different treatment conditions and stained for KIM-1 immunoreactivity. […] (SVA-stria vascularis, OHC-outer hair cell, RM-Reissner's membrane, SG—spiral ganglion).

NOX3 = NOX3 immunoreactivity in cochlea sections; assay type: in vivo, male Wistar rats
NOX3 mRNA [3] = assay: Kidney NOX3 mRNA by real time RT-PCR; assay type: in vivo, male Wistar rats; details: 72 h
Source text: as §1

[4] = tested on: AT6.1 rat prostate cancer cells; assay: Cisplatin killing of tumor cells (imaging); assay type: cell-based
Source text: Cells were fixed with 4% paraformaldehyde and imaged. FIG. 5B is a panel of photomicrographs of the cell images.

KIM-1 mRNA [5] = assay: KIM-1 mRNA by real time RT-PCR in UB/OC-1 cells; assay type: cell-based
Protocol: (§2) For real time reverse transcriptase polymerase chain reaction (RT-PCR), one microgram of total RNA was converted to cDNA using iScript cDNA Synthesis Kit (Bio-Rad, Hercules, Calif.) and sample preparations were performed essentially as previously described (D. Mukherjea et al., NEUROSCIENCE 139:733-740 (2006)). Amplification and detection was performed with the Cepheid Smart Cycler Detection System. On completion of amplification, the melting curve analysis was performed by cooling the reaction to 60° C. and then heating slowly 95° C., according to the instruction of manufacturer (Cepheid systems). The cycle number at which the sample reaches the threshold fluorescent intensity is termed the cycle threshold (Ct). The relative change in mRNA levels between untreated control (1) and treated sample (2) was measured using the formula: 2-ΔΔCt (R. Soong et al., Quantitative reverse transcription-polymerase chain reaction detection of cytokeratin 20 in noncolorectal lymph nodes, CLIN. CANCER RES. 7:3423-3429 (2001)). Relative change in mRNA levels between samples was expressed as a percentage of normal control. […] Real time PCR products were analyzed on a 2% agarose gel to verify the correct product sizes and visualization of the amplified product was effected using the dye SyBr Green I (Molecular Probes, Eugene, Oreg.). […]

UB/OC-1 cells [6] = assay: ROS generation by H2DCFDA fluorescence, confocal microscopy; assay type: cell-based
Source text: Imaging of ROS generation was done as previously described (P. Puntambekar et al., Essential role of Rac1/NADPH oxidase in nerve growth factor induction of TRPV1 expression, J. NEUROCHEM. 95: 1689-1703 (2005)).

TRPV1 mRNA [7] = assay: TRPV1 mRNA by real time RT-PCR in UB/OC-1 cells; assay type: cell-based
Protocol: as §2

KIM-1 mRNA [8] = assay: Kidney KIM-1 mRNA by real time RT-PCR; assay type: in vivo, male Wistar rats; details: 72 h
Source text: as §1

UB/OC-1 cells [9] = assay: Intracellular Ca2+ release by Fluo-4AM imaging; assay type: cell-based
Protocol: UB/OC-1 cells were grown on glass coverslips. […] After incubation, cells were washed once with physiological buffer and then imaged by a Fluoview confocal microscope (Olympus Imaging America Inc., Center Valley, Pa., USA).

NOX3 mRNA [10] = assay: NOX3 mRNA by real time RT-PCR in UB/OC-1 cells; assay type: cell-based
Protocol: RNA was isolated by adding 1 ml TRI reagent to 100 mg of cochlear tissue or 0.5 ml TRI reagent per well of each six well plate. Tissues were homogenized in TRI reagent using a Polytron (setting 7, 15 sec) and centrifuged at 12,000×g for 10 min at 4° C. The remainder of the procedure was identical to that described in D. Mukherjea et al., NEUROSCIENCE 139:733-740 (2006).
For real time reverse transcriptase polymerase chain reaction (RT-PCR), one microgram of total RNA was converted to cDNA using iScript cDNA Synthesis Kit (Bio-Rad, Hercules, Calif.) and sample preparations were performed essentially as previously described (D. Mukherjea et al., NEUROSCIENCE 139:733-740 (2006)). Amplification and detection was performed with the Cepheid Smart Cycler Detection System. On completion of amplification, the melting curve analysis was performed by cooling the reaction to 60° C. and then heating slowly 95° C., according to the instruction of manufacturer (Cepheid systems). The cycle number at which the sample reaches the threshold fluorescent intensity is termed the cycle threshold (Ct). The relative change in mRNA levels between untreated control (1) and treated sample (2) was measured using the formula: 2-ΔΔCt (R. Soong et al., Quantitative reverse transcription-polymerase chain reaction detection of cytokeratin 20 in noncolorectal lymph nodes, CLIN. CANCER RES. 7:3423-3429 (2001)). Relative change in mRNA levels between samples was expressed as a percentage of normal control. Negative controls for both target gene and GAPDH was used for all reaction groups. Real time PCR products were analyzed on a 2% agarose gel to verify the correct product sizes and visualization of the amplified product was effected using the dye SyBr Green I (Molecular Probes, Eugene, Oreg.).

[11] = tested on: TRP and P2x receptor channels in UB/OC-1 cells; assay: FM1-43 dye uptake via TRP and P2x channels; assay type: cell-based; details: for basal FM1-43 uptake (fluorescence): added alone
Source text: FM1-43 is selectively taken up by cells expressing the TRP and P2x receptor channels.
Cells were scanned every 6 sec by Argon laser (480 nm) and at the 6th scan FM1-43 dye was dropped on the cells. FIG. 6 is panel of photomicrographs of the cells following dye exposure. […] Each gray-scale image to the right of each fluorescence image is the differential interference constrast image for the cells shown in the corresponding fluorescence image.

[12] = tested on: outer hair cells of the organ of Corti; assay: Outer hair cell damage by scanning electron microscopy, i.p. transplatin; assay type: in vivo, rat; details: 72 h
[13] = Cisplatin-induced hearing loss, ABR threshold shifts, i.p. transplatin; assay type: in vivo, male Wistar rats
Source text: Data are presented as the mean±standard error of 8 ears examined from 4 animals per group.

[14] = Body temperature after i.p. transplatin; assay type: in vivo, rat; details: transplatin 5.5 mg/kg i.p., every 30 min for 150 min, 2 rats
Protocol: TRPV1 antagonists were initially developed as novel treatments for inflammatory pain. However, it was observed that the administration of classical TRPV1 antagonists produced hyperthermia in animals and human (N. R. Gavva, Body-temperature maintenance as the predominant function of the vanilloid receptor TRPV1. TRENDS PHARMACOL SCI 29:550-557 (2007)), underscoring a role of TRPV1 in the control of body temperature. […] Body temperature was then recorded every 30 min for 150 min. FIG. 11 is a graph of the results observed in two rats (Tp) and a control animal (PBS).

[15] = tested on: HEK-293 cells stably transfected with TRPV1 receptor; assay: Capsaicin-induced ROS generation in HEK-VR1 cells; assay type: cell-based; details: transplatin 2.5 μM pre-treatment; data not shown
Source text: Thus, transplatin can be useful in the treatment of inflammatory conditions, such as arthritis, inflammatory and chronic pain and cancer pain.

[16] = tested on: dorsal root ganglion (DRG) cells; assay: NGF-induced ROS generation in dorsal root ganglion cells (H2DCFDA); assay type: cell-based, neonatal mice; details: transplatin 2.5 μM 30 min prior to NGF 100 ng/ml
Protocol: Recent studies have shown that ROS generation is the single most important mediator of inflammation. Dorsal root ganglion (DRG) cells isolated from neonatal mice have shown increased ROS generation in response to nerve growth factor (NGF; data not shown). […] Fluorescent images were obtained at 0 sec and collected over a period of 5 min after addition of NGF (100 ng/ml). NGF generated ROS is shown by changes in fluorescence intensity over time.

Body weight loss = assay type: in vivo, rat; details: data not shown
cellular DNA = details: cited from earlier work
[17] = transplatin 5.5 mg/kg i.p. alone
[18] = transplatin 5.5 mg/kg i.p. followed by cisplatin 11 mg/kg i.p.
[19] = trans-tympanic transplatin 50 μl of 0.5 mg/ml, then cisplatin 11 mg/kg i.p.
[20] = transplatin 1 mg/kg i.p. then cisplatin 11 mg/kg i.p.
[21] = transplatin 1, 2.5, 10 μM 30 min prior to cisplatin 5 μM 24 h
[22] = transplatin 1 μM 30 min prior to cisplatin 5 μM

Structure (SMILES): N.N.[Cl][Pt][Cl] [cisplatin, reference compound]
- cell death (UB/OC-1 hair cells; cisplatin 20 μM, 24 h): ~80%
- kidney TRPV1 mRNA expression (TRPV1 mRNA [1]; cisplatin 11 mg/kg i.p.): 6 fold
- outer hair cell damage/loss ([2]; cisplatin 11 mg/kg i.p., 72 h): ~70%
- KIM-1 immunolabeling in organ of Corti / cochlea sections (KIM-1; cisplatin 11 mg/kg i.p.): induction of KIM-1 immunolabeling
- NOX3 immunoreactivity in cochlea (OHC, stria vascularis, spiral ganglion) (NOX3; cisplatin 11 mg/kg i.p., 72 h): increased NOX3 protein
- kidney NOX3 mRNA expression (NOX3 mRNA [3]; cisplatin 11 mg/kg i.p.): 4 fold
- cell loss ([4]; cisplatin 100 μM, 24 h): ~80%
- increase in KIM-1 mRNA expression over vehicle treated controls (KIM-1 mRNA [5]; cisplatin 5 μM, 24 h): 4 fold and 4±0.5 fold
- ROS generation (H2DCFDA fluorescence) (UB/OC-1 cells [6]; cisplatin 2.5 μM, 30 min): marked increase in ROS generation; also recorded: increases ROS generation
- increase in TRPV1 mRNA expression over vehicle treated controls (TRPV1 mRNA [7]; cisplatin 5 μM, 24 h): 3.6 fold and 3.5±0.7 fold
- kidney KIM-1 mRNA expression (KIM-1 mRNA [8]; cisplatin 11 mg/kg i.p.): 50 fold
- intracellular Ca2+ (Fluo-4AM fluorescence) (UB/OC-1 cells [9]; cisplatin 5 μM, 30 min): increased fluorescence
- NOX3 mRNA (NOX3 mRNA [10]; cisplatin 5 μM): increase in NOX3 mRNA
- uptake of FM1-43 dye ([11]; cisplatin 5 μM alone, 30 min): increased uptake of FM1-43 dye
- outer hair cells damaged per field, basal turn of organ of Corti ([12]; cisplatin 11 mg/kg i.p.): ~40%

Structure (SMILES): N.N.N.N.N.N.N.N.N.N.N.N.N.N.[Cl-].[Cl-].[Cl-].[Cl-].[Cl-].[Cl-].[O-2].[O-2].[Ru+3].[Ru+3].[Ru+4] [ruthenium red, reference compound]
- basal FM1-43 uptake (fluorescence) [11]: less inhibition of basal fluorescence than transplatin

Structure (SMILES): N.N.[Cl][Pt][Cl] [transplatin, trans-diamminedichloroplatinum (II)]
- cell survival (UB/OC-1 hair cells; transplatin 1, 2.5, 10 μM 30 min prior to cisplatin 20 μM 24 h, depending on dose): 80-97%
- kidney TRPV1 mRNA expression compared to PBS controls (TRPV1 mRNA [1]; [17]): 0.5 fold
- kidney TRPV1 mRNA expression (TRPV1 mRNA [1]; [18]): 1.5 fold
- cisplatin-induced outer hair cell damage (SEM morphology) [2, 19]: almost completely abrogated
- outer hair cell damage/loss [2, 19]: ~7%
- cisplatin-induced KIM-1 immunolabeling in cochlea (KIM-1; [18]): reduced; also recorded: decreased
- cisplatin-induced increase in NOX3 in cochlea (NOX3; transplatin 5.5 mg/kg i.p. immediately before cisplatin 11 mg/kg i.p., 72 h): reduced
- NOX3 expression in cochlea vs vehicle control (NOX3; transplatin alone): did not increase NOX3 expression
- animals protected [13, 20]: 75%
- reductions in ABR thresholds (number protected) [13, 20]: 6 of 8
- auditory protection ([13]; transplatin 3 mg/kg i.p. then cisplatin 11 mg/kg i.p.): complete protection
- auditory protection ([13]; transplatin 5.5 mg/kg i.p. then cisplatin 11 mg/kg i.p.): complete protection
- ABR thresholds ([13]; transplatin alone): did not affect the ABR thresholds
- kidney NOX3 mRNA expression compared to PBS controls (NOX3 mRNA [3]; [17]): 1.3 fold
- kidney NOX3 mRNA expression (NOX3 mRNA [3]; [18]): 1.7 fold
- body temperature [14]: did not produce any apparent increase in body temperature; also recorded: no apparent trend of higher body temperatures
- ROS generation by 10 μM capsaicin [15]: inhibited
- cell survival compared to vehicle control ([4]; transplatin alone): did not cause significant change in cell survival
- NGF-induced ROS generation [16]: inhibited ROS generation
- weight loss (Body weight loss; transplatin by itself): did not produce weight loss
- cisplatin-mediated weight loss (Body weight loss; transplatin with cisplatin): did not inhibit cisplatin-mediated weight loss
- cisplatin-induced KIM-1 mRNA (KIM-1 mRNA [5]; [21]): attenuated to control levels
- cisplatin-induced increase in ROS generation (UB/OC-1 cells [6]; pretreatment with transplatin 1 μM, then cisplatin 2.5 μM 30 min): attenuated; also recorded: significantly reduced
- ROS generation (UB/OC-1 cells [6]; transplatin administered alone): did not stimulate ROS generation
- cisplatin-induced TRPV1 mRNA expression (TRPV1 mRNA [7]; transplatin 1, 2.5, 10 μM 30 min prior to cisplatin 5 μM 24 h, 10 μM best inhibition): attenuated; also recorded: abrogated by transplatin at higher concentrations
- kidney KIM-1 mRNA expression compared to PBS controls (KIM-1 mRNA [8]; [17]): 1.7 fold
- kidney KIM-1 mRNA expression (KIM-1 mRNA [8]; [18]): 1.1 fold
- cisplatin-induced increase in intracellular Ca2+ (UB/OC-1 cells [9]; [22]): abrogated
- time of maximum DNA binding (cellular DNA): 6 h
- cisplatin-induced increase in NOX3 mRNA (NOX3 mRNA [10]; [21]): attenuated; also recorded: down regulates the increase in NOX3 mRNA
- NOX3 mRNA expression (NOX3 mRNA [10]; transplatin alone (1, 2.5 μM)): almost no expression of NOX3 mRNA
- basal FM1-43 uptake (fluorescence) [11]: reduced fluorescence below that of the control cells
- FM1-43 dye entry after cisplatin [11, 22]: decreased entry of the dye
- outer hair cells damaged per field, basal turn of organ of Corti ([12]; transplatin 5.5 mg/kg i.p. pretreatment then cisplatin 11 mg/kg i.p.): below 10%
